Source: patent US6120765A, “Urokinase plasminogen activator fragments” (Shiseido Co. Ltd., priority 1993, dated 2000)
Where no end group is shown, it is not given here.

System: Primary human keratinocytes
Assay: Mitogenesis assay (3H-thymidine incorporation, DNA synthesis) in keratinocytes
Assay type: cell-based
Details: for 3H-thymidine uptake (mitogenesis) of Lys23-substituted 9-mers versus controls: keratinocytes, negative control no peptide, positive control K-GFD
Description: FIG. 1 is a bar graph which represents the effect of various uPA peptides on DNA synthesis in keratinocytes. Various concentrations of GFD peptides were tested in order to compare the mitogenic activity. After 24 h incubation with a peptide and 3H-thymidine, incorporated radioactivity was measured as described herein. Five concentrations were used for each peptide. For a given peptide the uppermost bar of the five represents 0.1 μM, the next lower bar 0.33 μM, the next lower bar 1 μM, the next lower bar 3.3 μM, and the lowest bar, 10 μM.
Mitogenesis Assay The effect of a peptide on mitogenesis was determined as a function of DNA synthesis as follows. Peptides (in phosphate buffered saline (PBS)) were added to the monolayers (grown as described herein) to a final concentration of either 0.1 μM, 0.33 μM, 1.0 μM, 3.3 μM, or 10 μM. 5 μL of ^3 H-thymidine (10 μCi/ml; Amersham, Arlington Heights, Ill.) in 150 μL KGM was added to the cultures concurrent with the peptides, and cells were harvested and lysed after 24 hours at 37° C. in distilled H2 O using a Tomtec cell harvester, and fixed with 70% ethanol. The lysed cells were then transferred to a nylon filter (Amersham, Arlington Heights, Ill.), Beta plate scintillation fluid was added (LKB), and radioactivity was measured using a Wallac 1205 beta plate counter. Control samples, incubated in the presence of phosphate-buffered saline (PBS) and ^3 H-thymidine gave control levels of radioactivity of approximately 400 cpm.
Cell Culture Primary human keratinocytes (Clonetics, Calif.) were cultured in 96-well plates (Corning, N.Y.) in serum-free medium (KGM medium, Clonetics) to 70-80% confluency on a monolayer culture at 37° C. in 5% C02.

Sequence | 3H-thymidine uptake (mitogenesis) of Lys23-substituted 9-mers versus controls | concentration giving maximum level of mitogenic activity (24 h, tested 0.1-10 μM) | also measured
SNAYFSDIH [A-GFD] | little different from negative control cells |  | 
SNEYFSDIH [E-GFD] | inhibited mitogenesis |  | 
SNKYFSNIH [9-mer, K-GFD printed in b183 with Asp instead of Asn] | increased uptake as compared with untreated cells | 1 µM | lowest concentration effective in stimulating mitogenesis (24 h, tested 0.1-10 μM): 0.33 µM
SNRYFSDIH [R-GFD] | greatly increased |  | 
TCVSNKYFSNIH [12-mer] |  |  | effect on keratinocyte stimulation (at other concentrations than 1 μM (0.1, 0.33, 3.3, 10 μM)): little, if any, effect; mitogenic activity (3H-thymidine incorporation) (only at 1 μM, 24 h): demonstrated mitogenic activity
TCVSNKYFSNIHWCN [15-mer] |  | 3.3 µM | 
